Laboratory results: US7235263B2, “Processes for controlling microbial organic compound production” (Kimberly-Clark Worldwide, Inc., priority 2001, dated 2007)

What was measured:
Format in all cases: cell-based
[1] = system: Proteus mirabilis (ATCC 29906); assay: Ammonia production by facultatively grown Proteus mirabilis in urine:TSB (ammonia probe)
Method: (§1) Proteus mirabilis was taken from a TSB culture (described in (1) above) and grown under various conditions for use in the Examples. For bacteria to be grown under aerobic conditions, 50 microliters of Proteus mirabilis was taken from a TSB culture prepared as described above and inoculated into a 50 mL volume of a freshly made 9:1 (by volume) pooled adult female urine:TSB mixture into a 250 mL shake flask. This mixture was rotated at 250 rpm at 37° C. overnight to grow the bacteria. For bacteria to be grown under facultative conditions, 10 microliters of Proteus mirabilis was taken from a TSB culture prepared as described above and inoculated into a 10 mL volume of a freshly made 9:1 (by volume) pooled adult female urine:TSB mixture into a 15 mL tube. The tube was loosely fitted with a screw cap, and held stationary at 37° C. overnight to grow the bacteria. For bacteria to be grown under anaerobic conditions, 10 microliters of Proteus mirabilis was taken from a TSB culture prepared as described above and inoculated into a 10 mL volume of a freshly made 9:1 (by volume) pooled adult female urine:TSB mixture into a 15 mL conical tube. The tube was purged with nitrogen and a screw cap tightly closed, and then was held stationary overnight at 37° C. to grow the bacteria.
Upon completion of the respective incubation periods of the samples, optical density measurements of each sample were taken as described above and ammonia production of the growth solutions was measured using an ammonia combination probe (Beckman, Fullerton, Calif.) by record mV using an Orion pH meter (Orion, Boston, Mass.). Orion ammonia standards (Orion) were used to calibrate the instrument.
(§2) In this Example, six different samples were prepared for analysis. The first sample comprised a urine:TSB mixture that was prepared in the same manner as that described in Example 1. […] The tube was loosely fitted with a screw cap, and held stationary at 37° C. overnight to grow the bacteria. […] The fifth sample comprising urine:TSB:Proteus mirabilis (facultatively grown) was prepared in the same manner as that described in Example 1.

[2] = system: Proteus mirabilis (ATCC 29906); assay: Bacterial yield of facultatively grown Proteus mirabilis in urine:TSB (from optical density); settings: Table 7; 10% (w/v) mannitol; facultative
Method: Proteus mirabilis (ATCC 29906) were recovered from frozen state by growing the appropriate bacterial coated MicroBank Bead (Pro Lab, Austin Tex.) in 10 mL trypticase soy broth (TSB, Difco, Ann Arbor, Mich.) in a 15 mL sterile loosely tightened screw capped conical tube overnight at 37° C. The tube was held stationary. (E. coli (ATCC 8739), utilized in Example 6 herein, was recovered using the same procedure described herein for Proteus mirabilis). Upon observation of turbidity, the bacterial suspension was checked for purity by isolation plate and Gram stain. Once determined that the isolate was Proteus mirabilis (or E. coli in Example 6), a colony from the isolation plate was transferred to 10 mL of TSB in a 15 mL sterile screw capped conical tube and incubated overnight at 37° C. under facultative conditions. Samples of bacterial suspension resulting from this overnight TSB culture were used to initiate all experiments utilizing Proteus mirabilis bacteria (or E. coli in Example 6).
as §1
In this Example, five samples were prepared and analyzed to determine: (1) Bacterial Yield (CFU/mL) calculated from optical density; (3) Percent viability of EPIOCULAR; and (4) EPIOCULAR IL-8. The samples included: (1) Deionized Water; (2) A urine:TSB mixture (9:1 by volume) as described above; (3) A urine:TSB mixture containing Proteus mirabilis bacteria grown under aerobic conditions as described above; (4) A urine:TSB mixture containing Proteus mirabilis bacteria grown under facultative conditions as described above; and (5) A urine:TSB mixture containing Proteus mirabilis bacteria grown under anaerobic conditions as described above.
as §2

Proteus mirabilis = assay: Growth of aerobically cultivated Proteus mirabilis in urine:TSB, microtiter serial dilution, optical density; settings: for optical density (bacterial cell growth): 48 hours at 37° C., aerobic
Method: Proteus mirabilis was cultured in TSB as described in Example 1 and transferred to a urine:TSB mixture (9:1) and incubated under aerobic conditions as described in Example 1. […] In a 96-well microtiter plate with a lid, 150 microliters of each 10% solution was introduced into the first and second columns of the wells. Using a multi-channel pipette, 150 microliters of urine:TSB mixture was introduced into each well except the first column. Beginning at the second column of wells, serial dilutions were made by removing 150 microliters from the second column and transferring it to the third column. The mixture was mixed by pipetting up and down three times. The serial dilutions continued across each column of the plate and, after column 11, 150 microliters was discarded leaving column 12 as the 0% solution. Each well was then inoculated with 1 microliter of Proteus mirabilis, except for the negative control rows. One to three drops of anti-fogging solution was place on the plate lids with a cotton applicator, and allowed to air dry. The mixtures were incubated for 48 hours at 37° C. under aerobic conditions. After incubation of the samples, each was analyzed for bacterial cell growth utilizing the optical density procedure as set forth in Example 1.

[3] = Table 7, 10% (w/v) mannitol, facultative

Compound: OC[C@@H](O)[C@@H](O)[C@H](O)[C@H](O)CO [Mannitol, mannitol, reference compound]
- Ammonia Produced (n = 3) [1, 3]: 621.6 ± 1.8 ppm
- Ammonia/Cell [1, 3]: 83.8 ppm/10E8CFU
- impact on the production of ammonia in the bacteria ([1]; mannitol in the absence of hydrogen peroxide, 10% (w/v)): does not significantly impact the production of ammonia
- Bacterial Yields [2]: 6.91E+8 CFU/mL
- optical density (bacterial cell growth) (Proteus mirabilis; 0.0097% in urine:TSB): 0.98
- optical density (bacterial cell growth) (Proteus mirabilis; 0.0195% in urine:TSB): 0.98
- optical density (bacterial cell growth) (Proteus mirabilis; 0.0391% in urine:TSB): 0.97
- optical density (bacterial cell growth) (Proteus mirabilis; 0.0785% in urine:TSB): 0.97
- optical density (bacterial cell growth) (Proteus mirabilis; 0.156% in urine:TSB): 0.92
- optical density (bacterial cell growth) (Proteus mirabilis; 0.313% in urine:TSB): 0.92
- optical density (bacterial cell growth) (Proteus mirabilis; 0.625% in urine:TSB): 0.98
- optical density (bacterial cell growth) (Proteus mirabilis; 1.25% in urine:TSB): 1.02
- optical density (bacterial cell growth) (Proteus mirabilis; 2.5% in urine:TSB): 0.99
- optical density (bacterial cell growth) (Proteus mirabilis; 5% in urine:TSB): 0.89
- optical density (bacterial cell growth) (Proteus mirabilis; 10% in urine:TSB): 0.87
- effect on cell growth (Proteus mirabilis; at elevate concentrations): little, if any, effect on cell growth
- effect on cell growth (Proteus mirabilis; at low concentrations): no effect on cell growth

Compound: mannitol peroxide [3 Hr.]
- optical density (bacterial cell growth) (Proteus mirabilis; 0.0097% in urine:TSB): 0.98
- optical density (bacterial cell growth) (Proteus mirabilis; 0.0195% in urine:TSB): 0.94
- optical density (bacterial cell growth) (Proteus mirabilis; 0.0391% in urine:TSB): 0.94
- optical density (bacterial cell growth) (Proteus mirabilis; 0.0785% in urine:TSB): 0.97
- optical density (bacterial cell growth) (Proteus mirabilis; 0.156% in urine:TSB): 0.99
- optical density (bacterial cell growth) (Proteus mirabilis; 0.313% in urine:TSB): 0.83
- optical density (bacterial cell growth) (Proteus mirabilis; 0.625% in urine:TSB): 0.99
- optical density (bacterial cell growth) (Proteus mirabilis; 1.25% in urine:TSB): 0.04
- optical density (bacterial cell growth) (Proteus mirabilis; 2.5% in urine:TSB): 0.03
- optical density (bacterial cell growth) (Proteus mirabilis; 5% in urine:TSB): 0.03
- optical density (bacterial cell growth) (Proteus mirabilis; 10% in urine:TSB): 0.03

Compound: mannitol peroxide [4.5 Hr.]
- optical density (bacterial cell growth) (Proteus mirabilis; 0.0097% in urine:TSB): 0.97
- optical density (bacterial cell growth) (Proteus mirabilis; 0.0195% in urine:TSB): 0.98
- optical density (bacterial cell growth) (Proteus mirabilis; 0.0391% in urine:TSB): 0.99
- optical density (bacterial cell growth) (Proteus mirabilis; 0.0785% in urine:TSB): 0.99
- optical density (bacterial cell growth) (Proteus mirabilis; 0.156% in urine:TSB): 0.98
- optical density (bacterial cell growth) (Proteus mirabilis; 0.313% in urine:TSB): 0.99
- optical density (bacterial cell growth) (Proteus mirabilis; 0.625% in urine:TSB): 0.93
- optical density (bacterial cell growth) (Proteus mirabilis; 1.25% in urine:TSB): 0.99
- optical density (bacterial cell growth) (Proteus mirabilis; 2.5% in urine:TSB): 0.97
- optical density (bacterial cell growth) (Proteus mirabilis; 5% in urine:TSB): 0.87
- optical density (bacterial cell growth) (Proteus mirabilis; 10% in urine:TSB): 0.04

Compound: mannitol peroxide [24 Hr.]
- optical density (bacterial cell growth) (Proteus mirabilis; 0.0097% in urine:TSB): 0.99
- optical density (bacterial cell growth) (Proteus mirabilis; 0.0195% in urine:TSB): 0.98
- optical density (bacterial cell growth) (Proteus mirabilis; 0.0391% in urine:TSB): 0.99
- optical density (bacterial cell growth) (Proteus mirabilis; 0.0785% in urine:TSB): 0.97
- optical density (bacterial cell growth) (Proteus mirabilis; 0.156% in urine:TSB): 0.97
- optical density (bacterial cell growth) (Proteus mirabilis; 0.313% in urine:TSB): 0.97
- optical density (bacterial cell growth) (Proteus mirabilis; 0.625% in urine:TSB): 0.96
- optical density (bacterial cell growth) (Proteus mirabilis; 1.25% in urine:TSB): 0.95
- optical density (bacterial cell growth) (Proteus mirabilis; 2.5% in urine:TSB): 0.93
- optical density (bacterial cell growth) (Proteus mirabilis; 5% in urine:TSB): 0.88
- optical density (bacterial cell growth) (Proteus mirabilis; 10% in urine:TSB): 0.80
